# Key:
# [1] = system: Alternaria brassicae; assay: In vivo preventive test on Alternaria brassicae (leaf spot on radish or cabbage); conditions: 500 ppm of active ingredient, preventive spray on radish or cabbage, evaluated 3 to 4 days after inoculation, read-out: efficacy
# How it was run: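 Protective spray on young radish or cabbage: actives in water diluted from DMSO/acetone/Tween 80, with solvent-only controls. Leaves were challenged after 24 h with a spore suspension, and plants were held at 100% RH, 20 °C for 3 to 4 days.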
# [2] = system: Colletotrichum lindemuthianum; assay: In vivo preventive test on Colletotrichum lindemuthianum (leaf spot on bean); conditions: 168 h, 500 ppm of active ingredient, preventive spray on bean, evaluated 7 days after inoculation, read-out: efficacy
# How it was run: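 Young bean plants sprayed with compound in DMSO/acetone/Tween 80 diluted in water; solvent-only controls. Inoculated 24 h later with C. lindemuthianum spore suspension, then kept 24 h at 20 °C/100% RH and 6 days at 20 °C/90% RH.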
# [3] = system: Botrytis cinerea; assay: B-11. Botrytis cinerea in vitro cell test; format: cell-based; conditions: 144 h, 20 ppm of active ingredient, 6 days incubation, liquid culture, absorbance, read-out: efficacy (inhibition of fungal growth)
# How it was run: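 B. cinerea spores were grown in liquid culture with compound (DMSO ≤1% final). Mycelium growth was measured spectrometrically after 6 days, with inhibition taken as absorbance relative to untreated control wells.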
Compound,pest or weed control at 500 ppm [1],pest or weed control at 500 ppm [2],inhibition at 20 ppm [3]
O=C(NC[C@H](F)c1ccc(Cl)cc1Cl)c1c(Oc2cccc(C(F)(F)F)c2)cnc2ccoc12 (racemic) [I-067],90 to 100%,90 to 100%,90 to 100%
O=C(NC[C@H](F)c1ccc(Cl)cc1Cl)c1c(Oc2cccc(C3CC3)c2F)nnc2ccccc12 (racemic) [I-072],90 to 100%,90 to 100%,90 to 100%
Cc1ccc([C@@H](F)CNC(=O)c2c(Oc3cccc(C(F)(F)F)c3)nnc3ccccc23)cc1C (racemic) [I-084],90 to 100%,90 to 100%,90 to 100%
Cc1ccc(CCNC(=O)c2c(Oc3cccc(C4CC4)c3F)nnc3ccccc23)c(C)c1 [I-070],90 to 100%,90 to 100%,90 to 100%
"Cc1ccc(C(F)(F)CNC(=O)c2c(Oc3cccc(C4CC4)c3F)nnc3ccccc23)c(C)c1 [I-071, 3-(3-cyclopropyl-2-fluoro-phenoxy)-N-[2-(2,4-dimethyl-phenyl)-2,2-difluoro-ethyl]cinnoline-4-carboxamide]",90 to 100%,90 to 100%,90 to 100%
O=C(NCC(F)c1ccc(Cl)cc1Cl)c1c(Oc2cccc(C(F)(F)F)c2)nnc2c1CCCC2 (stereo not drawn) [I-118],90 to 100%,90 to 100%,90 to 100%
"O=C(NCC(F)c1ccc(Cl)cc1Cl)c1c(Oc2cccc(C3CC3)c2)nnc2c1CCCC2 (stereo not drawn) [I-119, 3-(3-cyclopropylphenoxy)-N-[2-(2,4-dichlorophenyl)-2-fluoro-ethyl]-5,6,7,8-tetrahydrocinnoline-4-carboxamide]",90 to 100%,90 to 100%,90 to 100%
Cc1ccc(C(F)(F)CNC(=O)c2c(Oc3cccc(Cl)c3)nnc3c2CCCC3)c(C)c1 [I-121],90 to 100%,90 to 100%,90 to 100%
Cc1ccc(C(F)CNC(=O)c2c(Oc3cccc(C(F)(F)F)c3)nnc3c2COCC3)c(C)c1 (stereo not drawn) [I-123],90 to 100%,90 to 100%,90 to 100%
Cc1ccc(C(F)(F)CNC(=O)c2c(Oc3cccc(C(F)(F)F)c3)nnc3c2COCC3)c(Cl)c1 [I-124],90 to 100%,90 to 100%,90 to 100%
O=C(NCC(F)c1ccc(Cl)cc1Cl)c1c(Oc2cccc(C(F)(F)F)c2)nnc2c1COCC2 (stereo not drawn) [I-126],90 to 100%,90 to 100%,90 to 100%
Cc1cc(Br)ccc1C(F)(F)CNC(=O)c1c(Oc2cccc(C(F)(F)F)c2)nnc2c1COCC2 [I-127],90 to 100%,90 to 100%,90 to 100%
Cc1ccc(C(F)(F)CNC(=O)c2c(Oc3cccc(Br)c3F)nnc3c2CCCC3)c(C)c1 [I-128],90 to 100%,90 to 100%,90 to 100%
Cc1ccc(C(F)(F)CNC(=O)c2c(Oc3cccc(C(F)F)c3)nnc3c2CCCC3)c(C)c1 [I-129],90 to 100%,90 to 100%,90 to 100%
Cc1ccc(C(F)(F)CNC(=O)c2c(Oc3cccc(Cl)c3F)nnc3c2CCCC3)c(C)c1 [I-130],90 to 100%,90 to 100%,90 to 100%
Cc1ccc(C(F)(F)CNC(=O)c2c(Oc3cccc(C4CC4)c3F)nnc3c2CCCC3)c(C)c1 [I-131],90 to 100%,90 to 100%,90 to 100%
Cc1ccc(C(F)(F)CNC(=O)c2c(Oc3cccc(C(F)(F)F)c3)nnc3c2CCC3)c(C)c1 [I-132],90 to 100%,90 to 100%,90 to 100%
Cc1ccc(C(F)(F)CNC(=O)c2c(Oc3cccc(Cl)c3F)nnc3c2CCC3)c(C)c1 [I-133],90 to 100%,90 to 100%,90 to 100%
Cc1ccc(C(F)(F)CNC(=O)c2c(Oc3cccc(C4CC4)c3F)nnc3c2CCC3)c(C)c1 [I-134],90 to 100%,90 to 100%,90 to 100%
Cc1ccc(C(F)CNC(=O)c2c(Oc3cccc(Cl)c3F)nnc3c2CCCC3)c(C)c1 (stereo not drawn) [I-136],90 to 100%,90 to 100%,90 to 100%
Cc1ccc(C(F)CNC(=O)c2c(Oc3cccc(C4CC4)c3F)nnc3c2CCCC3)c(C)c1 (stereo not drawn) [I-137],90 to 100%,90 to 100%,90 to 100%
Cc1ccc(C(F)(F)CNC(=O)c2c(Oc3cccc(Cl)c3)nnc3c2CCCC3)c(Cl)c1 [I-139],90 to 100%,90 to 100%,90 to 100%

Compound,pest or weed control at 500 ppm [1],pest or weed control at 500 ppm [2],inhibition at 20 ppm [3]
"Cc1ccc(C(F)(F)CNC(=O)c2c(Oc3cccc(Cl)c3F)nnc3c2CCCC3)c(Cl)c1 [I-140, 3-(3-chloro-2-fluoro-phenoxy)-N-[2-(2-chloro-4-methyl-phenyl)-2,2-difluoro-ethyl]-5,6,7,8-tetrahydrocinnoline-4-carboxamide]",90 to 100%,90 to 100%,90 to 100%
Cc1ccc(C(F)(F)CNC(=O)c2c(Oc3cccc(C4CC4)c3F)nnc3c2CCCC3)c(Cl)c1 [I-141],90 to 100%,90 to 100%,90 to 100%
Cc1ccc(C(F)(F)CNC(=O)c2c(Oc3cccc(C(F)(F)F)c3)nnc3c2CCC3)c(Cl)c1 [I-142],90 to 100%,90 to 100%,90 to 100%
Cc1ccc(C(F)(F)CNC(=O)c2c(Oc3cccc(Cl)c3F)nnc3c2CCC3)c(Cl)c1 [I-143],90 to 100%,90 to 100%,90 to 100%
Cc1ccc(C(F)(F)CNC(=O)c2c(Oc3cccc(C4CC4)c3F)nnc3c2CCC3)c(Cl)c1 [I-144],90 to 100%,90 to 100%,90 to 100%
Cc1cc(Cl)ccc1C(F)(F)CNC(=O)c1c(Oc2cccc(C(F)(F)F)c2)nnc2c1CCCC2 [I-145],90 to 100%,90 to 100%,90 to 100%
Cc1cc(Cl)ccc1C(F)(F)CNC(=O)c1c(Oc2cccc(Cl)c2)nnc2c1CCCC2 [I-146],90 to 100%,90 to 100%,90 to 100%
Cc1cc(Cl)ccc1C(F)(F)CNC(=O)c1c(Oc2cccc(Cl)c2F)nnc2c1CCC2 [I-148],90 to 100%,90 to 100%,90 to 100%
O=C(NCC(F)c1ccc(Cl)cc1Cl)c1c(Oc2cccc(Cl)c2F)nnc2c1CCCC2 (stereo not drawn) [I-149],90 to 100%,90 to 100%,90 to 100%
Cc1cc(Br)ccc1C(F)(F)CNC(=O)c1c(Oc2cccc(C(F)F)c2)nnc2c1CCCC2 [I-150],90 to 100%,90 to 100%,90 to 100%
Cc1cc(Br)ccc1C(F)(F)CNC(=O)c1c(Oc2cccc(Cl)c2)nnc2c1CCCC2 [I-151],90 to 100%,90 to 100%,90 to 100%
Cc1cc(Br)ccc1C(F)(F)CNC(=O)c1c(Oc2cccc(Cl)c2F)nnc2c1CCCC2 [I-152],90 to 100%,90 to 100%,90 to 100%
O=C(NCC(F)c1ccc(Cl)cc1Cl)c1c(Oc2cccc(C(F)(F)F)c2)nnc2c1CCC2 (stereo not drawn) [I-186],90 to 100%,90 to 100%,90 to 100%
O=C(NCC(F)c1ccc(Cl)cc1Cl)c1c(Oc2cccc(Cl)c2F)nnc2c1CCC2 (stereo not drawn) [I-188],90 to 100%,90 to 100%,90 to 100%
O=C(NCC(F)(F)c1ccc(Br)cc1Cl)c1c(Oc2cccc(C(F)(F)F)c2)nnc2c1CCC2 [I-212],90 to 100%,90 to 100%,90 to 100%
O=C(NCC(F)(F)c1ccc(Br)cc1Cl)c1c(Oc2cccc(Cl)c2F)nnc2c1CCC2 [I-213],90 to 100%,90 to 100%,90 to 100%
Cc1ccc(C(F)(F)CNC(=O)c2c(Oc3cccc(Br)c3)nnc3ccccc23)c(C)c1 [I-216],90 to 100%,90 to 100%,90 to 100%
Cc1ccc(C(F)(F)CNC(=O)c2c(Oc3cccc(C(F)F)c3)cnc3ccccc23)c(C)c1 [I-220],90 to 100%,80 to 89%,90 to 100%
Cc1cccc(Oc2cnc3ccccc3c2C(=O)NCC(F)(F)c2ccc(C)cc2C)c1 [I-222],90 to 100%,70 to 79%,90 to 100%
Cc1ccc(C(F)(F)CNC(=O)c2c(Oc3cccc(Br)c3F)nnc3ccccc23)c(C)c1 [I-227],90 to 100%,80 to 89%,90 to 100%
O=C(NCC(F)(F)c1ccc(Cl)cc1Cl)c1c(Oc2cccc(C(F)(F)F)c2)nnc2c1COCC2 [I-228],90 to 100%,90 to 100%,90 to 100%
O=C(NCC(F)(F)c1ccc(Br)cc1Cl)c1c(Oc2cccc(C(F)(F)F)c2)nnc2c1COCC2 [I-229],90 to 100%,90 to 100%,90 to 100%

# — patent publication US20230192617A1, “AZABICYCLIC(THIO)AMIDES AS FUNGICIDAL COMPOUNDS” (Bayer CropScience Aktiengesellschaft, priority 2020, published 2023)
